Some test systems named below: Escherichia coli UB1005; Pseudomonas aeruginosa; Staphylococcus aureus.
Assay in all cases: ≥ marks a high value that may be exact or a test limit, other limits are often not marked, values filed in µg/mL are converted to µM
The subject of test [1] is Staphylococcus aureus NCTC 10788.
Test [2] deals with Escherichia coli NCTC 10418.
Test [3] relates to Candida albicans NCYC 1467.
The subject of test [4] is Pseudomonas aeruginosa H187.
Test [5] has as its system Mycobacterium tuberculosis H37Rv.
Test [6] concerns Burkholderia cepacia ATCC 25416.
The test system of test [7] is Pseudomonas aeruginosa H547.
Test [8] has as its system Pseudomonas aeruginosa K799.
The subject of test [9] is Pseudomonas aeruginosa Z61.
Test [10] relates to Pseudomonas aeruginosa H744.
The subject of test [11] is Salmonella enterica subsp. enterica serovar Typhimurium ATCC 14028s.
Test [12] deals with Staphylococcus aureus NCTC 12493.
Test [13] concerns Pseudomonas aeruginosa ATCC 27853.
Test [14] relates to Staphylococcus aureus ATCC 25923.
Test [15] concerns Bordetella bronchiseptica CUN 11844-99.
Test [16] deals with Escherichia coli ATCC 25922.
For test [17], the system named is Pseudomonas aeruginosa CUN 4158-02.

Molecules are shown by their SMILES. ≈ marks a conversion by molar mass, not a printed value.

For the compound `CC[C@H](C)[C@H](NC(=O)[C@H](CCCCN)NC(=O)[C@H](CCCCN)NC(=O)[C@H](Cc1c[nH]c2ccccc12)NC(=O)[C@H](CC(C)C)NC(=O)[C@H](C)N)C(=O)N[C@@H](CC(C)C)C(=O)N[C@@H](CCCCN)C(=O)N[C@@H](CC(N)=O)C(=O)N[C@@H](C)C(=O)NCC(=O)N[C@@H](CCCCN)C(=O)N[C@@H](C)C(=O)N[C@@H](C)C(=O)N[C@@H](CC(C)C)C(=O)N[C@@H](CC(N)=O)C(=O)N[C@@H](CCCCN)C(=O)N[C@H](C(=O)N[C@@H](CC(N)=O)C(=O)N[C@@H](CCC(N)=O)C(=O)N[C@H](C(=O)N[C@H](C(=O)N[C@@H](CCC(N)=O)C(N)=O)C(C)C)[C@@H](C)CC)[C@@H](C)CC` [ALWKKILKNAGKAALNKINQIVQ], the results for the MIC in [1], in [2] and in test [3] were 8 µM (≈ 20.5 µg/mL), 8 µM (≈ 20.5 µg/mL) and 4 µM (≈ 10.2 µg/mL), respectively.
Regarding `CC[C@H](C)[C@H](NC(=O)[C@H](CC(C)C)NC(=O)[C@H](C)NC(=O)[C@@H]1CCCN1C(=O)[C@H](CC(C)C)NC(=O)CNC(=O)[C@@H](NC(=O)[C@@H](NC(=O)[C@H](CC(C)C)NC(=O)[C@@H](NC(=O)[C@H](CCCCN)NC(=O)[C@H](CCCCN)NC(=O)[C@@H](NC(=O)[C@H](C)NC(=O)[C@@H](NC(=O)[C@@H](NC(=O)[C@H](CC(C)C)NC(=O)[C@H](CCCCN)NC(=O)[C@H](CCCCN)NC(=O)[C@@H](NC(=O)[C@H](Cc1ccccc1)NC(=O)[C@H](CCC(=O)O)NC(=O)[C@H](CCCCN)NC(=O)[C@H](Cc1c[nH]c2ccccc12)NC(=O)[C@@H](N)CCCCN)[C@@H](C)CC)[C@@H](C)O)[C@@H](C)O)C(C)C)C(C)C)[C@@H](C)O)[C@@H](C)O)C(=O)N[C@@H](CO)C(=O)O` [KWKEFIKKLTTAVKKVLTTGLPALIS], the MIC in [4] was 1.65 µM (≈ 4.8 µg/mL); against Escherichia coli UB1005, 0.823 µM (≈ 2.4 µg/mL).
For the compound `CSCC[C@H](NC(=O)[C@H](CCC(=O)O)NC(=O)[C@H](CCCN=C(N)N)NC(=O)[C@@H](N)CCCCN)C(=O)N[C@@H](CCCCN)C(=O)N[C@@H](CCCN=C(N)N)C(=O)N1CCC[C@H]1C(=O)NCC(=O)N[C@@H](CCCCN)C(=O)NCC(=O)N[C@@H](CC(N)=O)C(=O)N[C@@H](CCCN=C(N)N)C(=O)N[C@@H](CC(N)=O)C(=O)N[C@@H](CC(N)=O)C(=O)N[C@@H](Cc1c[nH]c2ccccc12)C(=O)N[C@@H](CCCCN)C(=O)N[C@@H](CCCCN)C(=O)N[C@@H](CCC(=O)O)C(=O)N[C@@H](Cc1ccc(O)cc1)C(=O)O` [KREMKRPGKGNRNNWKKEY], the MIC in test [5] was not below 82.7 µM.
Turning to `CC[C@H](C)[C@H](NC(=O)[C@H](CC(C)C)NC(=O)[C@H](C)NC(=O)[C@H](CC(C)C)NC(=O)[C@@H]1CCCN1C(=O)[C@H](CCCCN)NC(=O)[C@H](C)NC(=O)[C@@H](NC(=O)[C@@H](NC(=O)[C@@H](NC(=O)[C@@H](NC(=O)[C@H](CCCCN)NC(=O)[C@H](CCCCN)NC(=O)[C@H](C)NC(=O)[C@H](C)NC(=O)[C@H](CO)NC(=O)[C@@H](NC(=O)[C@H](CC(C)C)NC(=O)[C@H](CCCCN)NC(=O)[C@H](CCCCN)NC(=O)[C@@H](NC(=O)[C@H](Cc1ccccc1)NC(=O)[C@H](CO)NC(=O)[C@H](CCCCN)NC(=O)[C@H](Cc1c[nH]c2ccccc12)NC(=O)[C@@H](N)CCCCN)[C@@H](C)CC)[C@@H](C)O)C(C)C)C(C)C)[C@@H](C)O)[C@@H](C)O)C(=O)N[C@@H](CO)C(=O)O` [KWKSFIKKLTSAAKKVVTTAKPLALIS], the MIC was found to be 21.6 µM (≈ 64 µg/mL) in [6]; 5.41 µM (≈ 16 µg/mL) in test [7]; 1.35 µM (≈ 4 µg/mL) in test [8]; 1.35 µM (≈ 4 µg/mL) in [9]; 0.676 µM (≈ 2 µg/mL) in [10]; 0.676 µM (≈ 2 µg/mL) against Escherichia coli UB1005. The MIC in test [11] is 1.69 µM (≈ 5 µg/mL).
Consider `CC[C@H](C)[C@H](NC(=O)CNC(=O)[C@@H](NC(=O)[C@H](CCCCN)NC(=O)[C@H](CCCCN)NC(=O)[C@H](Cc1ccccc1)NC(=O)[C@H](CC(C)C)NC(=O)[C@@H](N)CCCCN)[C@@H](C)CC)C(=O)NCC(=O)N[C@@H](C)C(=O)N[C@H](C(=O)N[C@@H](CC(C)C)C(=O)N[C@@H](CCCCN)C(=O)N[C@H](C(=O)N[C@@H](CC(C)C)C(=O)N[C@H](C(=O)N[C@H](C(=O)NCC(=O)N[C@@H](CC(C)C)C(=O)N1CCC[C@H]1C(=O)N[C@@H](C)C(=O)N[C@@H](CC(C)C)C(=O)N[C@@H](CCCCN)C(=O)N[C@@H](CC(C)C)C(=O)N[C@H](C(=O)N[C@@H](CC(C)C)C(=O)N[C@@H](CCCCN)C(=O)O)[C@@H](C)O)[C@@H](C)O)[C@@H](C)O)C(C)C)C(C)C` [KLFKKIGIGAVLKVLTTGLPALKLTLK], for which the MIC in test [6] was determined as 22.3 µM (≈ 64 µg/mL); in test [7] it was 11.2 µM (≈ 32 µg/mL); in [8], 11.2 µM (≈ 32 µg/mL); in test [9] it was 6.63 µM (≈ 19 µg/mL); in [10], 1.4 µM (≈ 4 µg/mL); against Escherichia coli UB1005, 1.75 µM (≈ 5 µg/mL). The same compound had an MIC in test [11] of 10.1 µM (≈ 29 µg/mL).
For the compound `CC[C@H](C)[C@@H]1NC(=O)[C@@H](NC(=O)[C@H](Cc2ccccc2)NC(=O)[C@H](C)NC(=O)[C@H](CCCCN)NC(=O)[C@H](CCCCN)NC(=O)[C@H](CC(C)C)NC(=O)[C@H](CC(C)C)NC(=O)[C@H](Cc2ccccc2)NC(=O)[C@@H](NC(=O)[C@H](CO)NC(=O)[C@@H]2CCCN2C(=O)[C@@H](NC(=O)[C@@H](NC(=O)[C@@H](N)Cc2ccccc2)[C@@H](C)CC)C(C)C)[C@@H](C)CC)CSSC[C@@H](C(=O)O)NC(=O)[C@H](CCCCN)NC(=O)[C@H](CCCCN)NC(=O)[C@H](CC(C)C)NC(=O)[C@H](C)NC1=O` [FIVPSIFLLKKAFCIALKKC], the minimal inhibitory concentration (MIC) with Pseudomonas aeruginosa was more than 512 µM; against Staphylococcus aureus, 8 µM (≈ 18.2 µg/mL); in test [1], 4 µM (≈ 9.12 µg/mL); in test [12], 4 µM (≈ 9.12 µg/mL); in [2], 16 µM (≈ 36.5 µg/mL); in test [3], 4 µM (≈ 9.12 µg/mL). The same compound had a minimal inhibitory concentration (MIC) in [13] of more than 512 µM.
With `CC(C)C[C@H](NC(=O)CNC(=O)[C@H](CCCCN)NC(=O)[C@H](Cc1ccccc1)NC(=O)[C@H](CCCCN)NC(=O)[C@H](Cc1c[nH]c2ccccc12)NC(=O)[C@H](CCCN=C(N)N)NC(=O)[C@H](Cc1ccccc1)NC(=O)[C@H](CCCCN)NC(=O)[C@H](CCCCN)NC(=O)[C@H](Cc1ccc(O)cc1)NC(=O)[C@H](CCCN=C(N)N)NC(=O)[C@H](CCCN=C(N)N)NC(=O)CN)C(=O)N[C@@H](Cc1ccccc1)C(=O)N[C@@H](CC(C)C)C(=O)N[C@@H](Cc1ccccc1)C(=O)N[C@@H](CC(C)C)C(=O)NCC(N)=O` [GRRYKKFRWKFKGLFLFLG], the MIC in [14] amounted to 26.1 µM (≈ 64 µg/mL); in [15], 6.54 µM (≈ 16 µg/mL); in test [16], 26.1 µM (≈ 64 µg/mL); in test [17], 26.1 µM (≈ 64 µg/mL).
With `CC[C@H](C)[C@H](NC(=O)[C@H](Cc1ccccc1)NC(=O)[C@H](CO)NC(=O)[C@H](CCCCN)NC(=O)[C@H](Cc1c[nH]c2ccccc12)NC(=O)[C@@H](N)CCCCN)C(=O)N[C@@H](CCCCN)C(=O)N[C@@H](CC(N)=O)C(=O)N[C@@H](CC(C)C)C(=O)N[C@@H](CCC(=O)O)C(=O)N[C@@H](CCCCN)C(=O)N[C@H](C(=O)N[C@@H](CC(C)C)C(=O)N[C@@H](CCCCN)C(=O)N1CCC[C@H]1C(=O)NCC(=O)NCC(=O)N[C@@H](CC(C)C)C(=O)N[C@@H](CC(C)C)C(=O)N[C@@H](CO)C(=O)N[C@@H](CC(N)=O)C(=O)N[C@H](C(=O)N[C@H](C(=O)N[C@H](C(=O)N[C@@H](CO)C(=O)N[C@@H](CC(C)C)C(=O)O)[C@@H](C)O)C(C)C)[C@@H](C)CC)C(C)C` [KWKSFIKNLEKVLKPGGLLSNIVTSL], the minimal inhibitory concentration (MIC) is 2.75 µM (≈ 8 µg/mL) in test [4] and 0.343 µM (≈ 1 µg/mL) against Escherichia coli UB1005.

The term MIC denotes the lowest concentration that inhibits growth of the organism. The low end stands for inhibition by little substance, the high end for a need for much substance.

The record behind these values is DBAASP.
